# Key:
# [1] = system: A375-GP cells (Dabrafenib-resistant); experiment: Dose-response curves and IC50, PrestoBlue cell viability, 72 h; assay type: cell-based, human; conditions: Homo sapiens, n.e. = did not suppress growth below 50% in the tested concentration range, read-out: Half-maximal inhibitory concentration value (IC50), Mean
# A375 cells = experiment: Synergy determination with the Chou-Talalay method (CompuSyn), cell viability 72 h; assay type: cell-based, human; conditions: 72 h cell viability, Chou-Talalay / Synergyfinder
# melanoma cell lines = conditions: several other melanoma cell lines; cited from earlier work
# [2] = system: NHEM (normal human epidermal melanocytes); experiment: Dose-response curves and IC50 in non-cancer cells, cell viability, 72 h
# Procedure: (§1) The IC50 values (nM) were calculated as indicated in Methods.
# [3] = system: NHDF (normal human dermal fibroblasts); experiment: as above; conditions: for IC50: Homo sapiens, NHDF, read-out: Half-maximal inhibitory concentration (IC50), NHDF Mean
# Procedure: as §1
# A375 cells (parental) [4] = experiment: Dose-response curves and IC50, PrestoBlue cell viability, 72 h; assay type: cell-based, human; conditions: Homo sapiens, A-375, n.e. = did not suppress growth below 50% in the tested concentration range, read-out: Half-maximal inhibitory concentration value (IC50), Mean
# [5] = system: A375-XP cells (Vemurafenib-resistant); experiment: as above; assay type: cell-based, human; conditions: Homo sapiens, n.e. = did not suppress growth below 50% in the tested concentration range, read-out: Half-maximal inhibitory concentration value (IC50), Mean
# [6] = system: A375 parental cells expressing iRFP; experiment: Long-term inhibitor treatment, iRFP fluorescence proliferation monitoring; assay type: cell-based, human
# Procedure: A375 parental and BRAFi-resistant cells, virally transduced with the near-infrared fluorescent protein (iRFP) were seeded at a density of 2500 cells/well in a 24-well plate (Greiner) in at least technical triplicates. Inhibitors, single or in combination, were added at the indicated amounts and replenished every 72 h for a duration of 76 days. To assess whether any remaining cells have become resistant to the treatment and would re-emerge, the drugs were removed and the cells underwent “drug holidays” for an additional 21 days. During the long-term treatment, cell proliferation was monitored bi-weekly on a LI-COR Odyssey Infrared Imaging System (LI-COR Biosciences). Fluorescence intensity was quantified with the Image Studio™ Lite software (LI-COR Biosciences).
# IGR37 cells (parental) [7] = experiment: Dose-response curves and IC50, PrestoBlue cell viability, 72 h; conditions: Homo sapiens, IGR-37, 72 h, read-out: Half-maximal inhibitory concentration (IC50)
# Procedure: (§2) All inhibitors used in this study were purchased from Selleck Chemicals (Houston, USA). They were dissolved in DMSO to a stock concentration of 10 mM according to the manufacturer’s instructions and stored at − 80 °C. […] Cell viability was measured with the PrestoBlue Cell Viability Reagent (ThermoFisher Scientific) on a CLARIOstar Monochromator microplate reader (BMG Labtech). Using the GraphPad Prism v5.04 software, the half-maximal inhibitor concentration values (IC50) were determined from the curve using the nonlinear log (inhibitor) vs response-variable slope (four parameters) equation. […] The IC50’s were determined for 3 biological replicates and are listed with their standard deviations.
# (§3) Values represent the mean of at least three biological replicates; one representative curve of at least 3 biological replicates is depicted. _XP: cells resistant to Vemurafenib (red), _GP: cells resistant to Dabrafenib (green).
# [8] = system: 501Mel-XP cells (Vemurafenib-resistant); experiment: as above; conditions: Homo sapiens, 72 h, read-out: Half-maximal inhibitory concentration (IC50)
# Procedure: as §2, §3
# 501Mel cells (parental) [9] = experiment: as above; conditions: Homo sapiens, 72 h, read-out: Half-maximal inhibitory concentration (IC50)
# Procedure: as §2, §3
# [10] = system: IGR37-GP cells (Dabrafenib-resistant); experiment: as above; conditions: Homo sapiens, 72 h, read-out: Half-maximal inhibitory concentration (IC50)
# Procedure: as §2, §3
# PARP cleavage = experiment: Western blot, PARP cleavage in A375 cells; assay type: cell-based, human; conditions: A375, A375-XP, A375-GP; 24 h treatment
# Procedure: (§4) Cells were seeded at a density of 10^5 cells/well in 24-well plates (Greiner). 24 h post seeding, cells were treated with inhibitors at indicated amounts for 3 h and/or 24 h. […] The following primary antibodies were used: anti-phospho-CHK1 (Ser317) (Cell Signalling Technology, 1:1000), anti-CHK1 (Cell Signalling Technology, 1:1000), anti-phospho-cdc2 (Tyr15) (Cell Signalling Technology, 1:1000), anti-cdc2 (Cell Signalling Technology, 1:1000), anti-PARP (Cell Signalling Technology, 1:1000), anti-cleaved-PARP (Cell Signalling Technology, 1:1000), anti-phospho-Erk (Tyr202/Tyr204) (Cell Signalling Technology, 1:2000), anti-Erk1/2 (Santa Cruz, Erk1 = 1:1000, Erk2 = 1:2000), anti-phospho-Akt (Ser473) (Cell Signalling Technology, 1:1500), anti-Akt1/2 (Santa Cruz, 1:1000), anti-Vinculin (Abcam, 1:1000) and anti-Tubulin (Santa Cruz, 1:5000). HRP-labeled secondary antibodies were purchased from Cell Signaling Technology (Boston, MA).
# [11] = system: IGR37-XP cells (Vemurafenib-resistant); experiment: Dose-response curves and IC50, PrestoBlue cell viability, 72 h; conditions: Homo sapiens, 72 h, read-out: Half-maximal inhibitory concentration (IC50)
# Procedure: as §2, §3
# A375 cells (parental) [12] = experiment: Kinase inhibitor library screening, PrestoBlue cell viability, 1 or 10 μM, 72 h; conditions: A375 Parental, in %
# [13] = system: 501Mel-GP cells (Dabrafenib-resistant); experiment: as above; conditions: 501Mel GP, in %
# [14] = system: 501Mel-XP cells (Vemurafenib-resistant); experiment: as above; conditions: 501Mel XP, in %
# IGR37 cells (parental) [15] = experiment: as above; conditions: IGR37 Parental, in %
# 501Mel cells (parental) [16] = experiment: as above; conditions: 501Mel Parental, in %
# In short: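 Values are % viability versus untreated wells, measured by PrestoBlue after a 72 h drug exposure. Screens covered the parental line plus sublines rendered resistant to Vemurafenib or Dabrafenib, each analysed in at least duplicate.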
# [17] = system: IGR37-GP cells (Dabrafenib-resistant); experiment: as above; conditions: IGR37 GP, in %
# [18] = system: IGR37-XP cells (Vemurafenib-resistant); experiment: as above; conditions: IGR37 XP, in %
# [19] = system: A375-XP cells (Vemurafenib-resistant); experiment: as above; conditions: A375 XP, in %
# [20] = system: A375-GP cells (Dabrafenib-resistant); experiment: as above; conditions: A375 GP, in %
# [21] = system: 501Mel-GP cells (Dabrafenib-resistant); experiment: Dose-response curves and IC50, PrestoBlue cell viability, 72 h; conditions: Homo sapiens, 72 h, read-out: Half-maximal inhibitory concentration (IC50)
# Procedure: as §2
# [22] = system: Tyr15 phosphorylation of CDK1 (P-cdc2); experiment: Western blot, phospho-cdc2 (Tyr15); assay type: cell-based, human; conditions: parental and resistant A375 cells, 3 h treatment
# Procedure: as §4
# [23] = system: A375 cells (parental sensitive) tumors; experiment: In vivo assay, subcutaneous melanoma tumors in NSG mice; set-up: species or system NOD scid gamma (NSG) mice; conditions: NSG mice with A375 or A375-XP tumors, 8 days of daily treatment
# Procedure: NOD scid gamma (NSG) mice were bred in-house and experiments were performed according to all applicable laws and regulations, after receiving approval by the institution’s animal experimentation ethics committee and the veterinarian service of the Ministry of Agriculture (Permit Number: 18-MDM-01). Single parental sensitive A375 cells (0.5 × 10^6 cells) and Vemurafenib-resistant A375-XP cells (2 × 10^6 cells) were resuspended in 100 μL of 1:1 mixed serum-free medium and matrigel (BD Biosciences) and injected subcutaneously in 6–8 week-old mice. […] Control mice received the respective vehicle by oral gavage and intraperitoneal injection. […] Statistical analysis was done using a two-way ANOVA followed by post-hoc Tukey’s multiple comparison tests.
# melanoma tumors = conditions: cited from earlier work
smiles,measurement,setting,value
CO[C@@H](C(=O)N1Cc2n[nH]c(NC(=O)c3ccc(N4CCN(C)CC4)cc3)c2C1)c1ccccc1 [Danusertib],IC50,[1],0.257 µM
same,synergistic effects with the BRAF inhibitors Vemurafenib and/or Dabrafenib (in words),A375 cells,clear synergistic effects
same,apoptosis and migration of melanoma cell lines (in words),melanoma cell lines,induced apoptosis and inhibited migration
same,IC50,"[2]; Homo sapiens, Melanocyte, read-out: Half-maximal inhibitory concentration (IC50), NHEM Mean",0.37 µM
same,IC50,[3],1.17 µM
same,IC50,A375 cells (parental) [4],0.328 µM
same,IC50,[5],0.295 µM
same,long-term cell growth under drug until day 76 (in words),"[6]; drugs replenished every 72 h, indicated concentrations",inconsistent
"C=CCn1c(=O)c2cnc(Nc3ccc(N4CCN(C)CC4)cc3)nc2n1-c1cccc(C(C)(C)O)n1 [MK-1775, reference compound]",IC50,IGR37 cells (parental) [7],0.286 µM
same,IC50,[8],0.22 µM
same,IC50,[1],0.325 µM
same,IC50,501Mel cells (parental) [9],0.257 µM
same,IC50,[10],0.289 µM
same,synergistic effects with the BRAF inhibitors Vemurafenib and/or Dabrafenib (in words),A375 cells,clear synergistic effects
same,Cleavage of PARP (in words),PARP cleavage,induced
same,"effect on healthy cells, cell viability (in words)",[2]; melanocytes (NHEM),very modest effects
same,"effect on healthy cells, cell viability (in words)",[3]; fibroblasts (NHDF),very modest effects
same,IC50,A375 cells (parental) [4],0.388 µM
same,IC50,[11],0.201 µM
same,cell viability (kinase inhibitor library screening),A375 cells (parental) [12]; 1μΜ,25.2
same,cell viability (kinase inhibitor library screening),A375 cells (parental) [12]; 10μΜ,4.9
same,cell viability (kinase inhibitor library screening),[13]; 1μΜ,27.8
same,cell viability (kinase inhibitor library screening),[13]; 10μΜ,24.0
same,cell viability (kinase inhibitor library screening),[14]; 1μΜ,11.1
same,cell viability (kinase inhibitor library screening),[14]; 10μΜ,6.5
same,cell viability (kinase inhibitor library screening),IGR37 cells (parental) [15]; 1μΜ,20.4
same,cell viability (kinase inhibitor library screening),IGR37 cells (parental) [15]; 10μΜ,9.8
same,cell viability (kinase inhibitor library screening),501Mel cells (parental) [16]; 1μΜ,35.1
same,cell viability (kinase inhibitor library screening),501Mel cells (parental) [16]; 10μΜ,24.2
same,cell viability (kinase inhibitor library screening),[17]; 1μΜ,46.6
same,cell viability (kinase inhibitor library screening),[17]; 10μΜ,41.7
same,cell viability (kinase inhibitor library screening),[18]; 1μΜ,45.0
same,cell viability (kinase inhibitor library screening),[18]; 10μΜ,36.2
same,cell viability (kinase inhibitor library screening),[19]; 1μΜ,43.8
same,cell viability (kinase inhibitor library screening),[19]; 10μΜ,8.7
same,cell viability (kinase inhibitor library screening),[20]; 1μΜ,17.5
same,cell viability (kinase inhibitor library screening),[20]; 10μΜ,1.8
same,IC50,[5],0.809 µM
same,IC50,[21],0.289 µM
same,inhibitory CDK1 (cdc2) phosphorylation level (in words),[22],reduced levels of inhibitory CDK1 (cdc2) phosphorylation
same,body weight and side effects during treatment (in words),[23],did not lose weight
CC[C@@H]1C(=O)N(C)c2cnc(Nc3ccc(C(=O)N[C@H]4CC[C@H](N5CCN(CC6CC6)CC5)CC4)cc3OC)nc2N1C(C)C [Volasertib],effect on melanoma tumors in vivo (in words),melanoma tumors,delay growth of melanoma tumors and to cause regression by inducing apoptosis in vivo
same,IC50,[1],0.015 µM
same,synergistic effects with the BRAF inhibitors Vemurafenib and/or Dabrafenib (in words),A375 cells,synergistic effects only with Dabrafenib
same,IC50,[3],0.075 µM
same,IC50,A375 cells (parental) [4],0.021 µM
same,IC50,[5],0.021 µM
same,"regrowth after removal of drugs (after day 76, by day 97) (in words)",[6],had started to grow back
same,long-term cell growth under drug until day 76 (in words),"[6]; 40 nM (also 20 nM, data not shown)",killed all cells

# — PMC6364417, “Kinase inhibitor library screening identifies synergistic drug combinations effective in sensitive and resistant melanoma cells” (Journal of Experimental & Clinical Cancer Research : CR, 2019)
